Reference: patent publication US4954347A (priority 1988, dated 1990)
Entries after “also recorded” stand apart in the source; their conditions may differ. Counter-ions that a name gives are not always drawn. Like-named read-outs stand apart in the source and are kept apart here.

How the values were obtained:
[1] = human, in vivo; cited from earlier work
beta-adrenergic = conditions: cited from earlier work
[2] = one patient; quinidine concomitantly with propafenone
[3] = tested on: electrically induced arrhythmias, ventricular tachycardias, circus-movement flutter; conditions: experimental animals; cited from earlier work
[4] = tested on: supraventricular and ventricular arrhythmias; conditions: in vivo; hydrochloride; cited from earlier work
[5] = tested on: fast inward sodium channels; conditions: hydrochloride; cited from earlier work
calcium = conditions: cited from earlier work

In the case of `COCCc1ccc(OCC(O)CNC(C)C)cc1` (centres unmarked) [metoprolol], the half-life [1] is listed as 3 to 7 h, the systemic bioavailability [1] is listed as 40-50% and the beta-blocking activity (beta-adrenergic) is listed as “primarily a beta-adrenergic blocking agent”.
For `C=C[C@H]1C[N@@]2CC[C@H]1C[C@@H]2[C@@H](O)c1ccnc2ccc(OC)cc12` [quinidine], the “effect on the blood levels of propafenone” value [2] is given as “very pronounced effect”, the “"late" ventricular tachycardias following coronary artery occlusion” value [3] is given as “prevent or terminate” and the circus-movement flutter [3] is given as “terminate or prevent”. For the same compound, the “threshold for electrically induced arrhythmias” value [3] was “raise the threshold”.
For `CCCNCC(O)COc1ccccc1C(=O)CCc1ccccc1` (centres unmarked) [propafenone, 2'-[3-(prophylamino)-2-(hydroxy)-(propoxy)-3-phenylpropiophenone hydrochloride], the beta-blocking activity (beta-adrenergic; hydrochloride) is given as “only a weak beta-blocker”, the “suppression of supraventricular and ventricular arrhythmias” value [4] is given as “effective against recurrent supraventricular and ventricular arrhythmias; also recorded: effective in suppressing both supraventricular and ventricular arrhythmias” and the “blockade of fast sodium channels” value [5] is given as “blocks fast inward sodium channels; also recorded: blockade of the fast sodium channel”. For the same compound, the calcium antagonist activity (calcium) was “weak calcium antagonist activity”.
